Test results published in the NIST ThermoML archive (doi:10.1016/j.tca.2015.07.018).
± gives the expanded uncertainty stated by the source.

Conditions: for Triple point temperature: From the change of vapor pressure slope; for vapor or sublimation pressure: Crystal, Rate of evaporation

| Triple point temperature (Crystal 1) [K] | Triple point temperature (Crystal 2) [K] | vapor or sublimation pressure (570 K) [kPa] | vapor or sublimation pressure (580 K) [kPa] | vapor or sublimation pressure (590 K) [kPa] | vapor or sublimation pressure (600 K) [kPa] | vapor or sublimation pressure (610 K) [kPa] | vapor or sublimation pressure (620 K) [kPa] | vapor or sublimation pressure (630 K) [kPa] | vapor or sublimation pressure (640 K) [kPa] | SMILES |
| --- | --- | --- | --- | --- | --- | --- | --- | --- | --- | --- |
| 701 ± 6 | 688 ± 6 |  |  |  |  |  |  |  |  | [Cl][Cu] [copper monochloride] |
|  |  | 0.004417 ± 0.00044 | 0.007462 ± 0.00075 | 0.01238 ± 0.0012 | 0.02021 ± 0.002 | 0.03245 ± 0.0032 | 0.05132 ± 0.0051 | 0.07998 ± 0.008 | 0.1229 ± 0.012 | [Cl-].[Cl-].[Cl-].[In+3] [indium chloride] |
